Source: publication PMC9877462, “Real time monitoring and evaluation of the inhibition effect of fucoxanthin against α-amylase activity by using QCM-A” (Frontiers in Nutrition, 2023)

Molecular target: T1, α-amylase (from human saliva, EC 3.2.1.1) (Homo sapiens, UniProt P0DUB6)
T1 construct: gene AMY1A
T1 sequence (P0DUB6 16-511): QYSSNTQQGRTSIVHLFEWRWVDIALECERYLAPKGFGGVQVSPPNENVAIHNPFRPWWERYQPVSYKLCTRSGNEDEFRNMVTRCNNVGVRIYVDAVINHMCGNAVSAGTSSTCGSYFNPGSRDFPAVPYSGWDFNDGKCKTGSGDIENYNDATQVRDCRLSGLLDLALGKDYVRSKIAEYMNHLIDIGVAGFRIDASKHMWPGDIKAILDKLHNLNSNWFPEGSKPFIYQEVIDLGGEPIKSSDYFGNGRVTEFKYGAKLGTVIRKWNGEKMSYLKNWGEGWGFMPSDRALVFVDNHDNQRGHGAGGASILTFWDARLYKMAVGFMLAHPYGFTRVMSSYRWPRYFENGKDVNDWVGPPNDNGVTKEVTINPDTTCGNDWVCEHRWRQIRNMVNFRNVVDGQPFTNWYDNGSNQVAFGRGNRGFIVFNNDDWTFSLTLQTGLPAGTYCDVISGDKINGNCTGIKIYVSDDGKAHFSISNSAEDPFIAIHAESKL
Assay: Enzyme inhibition kinetics (Lineweaver-Burk and Dixon plots) with amylose substrate; amylose-immobilized QCM-A hydrolysis assay
Assay type: biochemical

Structure (SMILES): CC(=O)O[C@H]1CC(C)(C)C(=C=C/C(C)=C/C=C/C(C)=C/C=C/C=C(C)/C=C/C=C(\C)C(=O)C[C@@]23O[C@]2(C)C[C@@H](O)CC3(C)C)[C@](C)(O)C1 [fucoxanthin]
- Ki: 36.3 µM
